# Measured values: patent US5607836A, “Methods of detecting compounds which bind to the P2U receptor” (The Curators of the University of Missouri, priority 1995, dated 1997)
# Assays:
# [1] = tested on: P2T receptor of K562 cells; experiment: cytoplasmic free calcium (fura-2) in untransfected or vector-transfected K562 cells; assay type: cell-based, human; settings: untransfected K562 cells; for elevation of [Ca^2+ ]i in untransfected K562 cells (P2T receptor): 1 mM for ATP, UTP, ATPγS, BzATP, BzUTP; for effect on [Ca^2+ ]i in untransfected K562 cells: concentrations as high as 1 mM
# From the text: (§1) Stable and Transient Transfections. To generate stable transfectants expressing the P2U receptor, K562 cells were transfected by electroporation (F. Toneguzzo et al., Mol. Cell. Biol. 6, 703 (1986)) with the neomycin-resistance plasmid pP2R1. pP2R1 is pRc/CMV containing a ~2.4 kb HindIII-NotI fragment of the P2U receptor cDNA, missing the first 6 nucleotides of the 5' untranslated region of the full length cDNA. control cells were stably transfected with pRc/CMV. Cells were sedimented at 200×g for 5 min at room temperature, rinsed once with phosphate-buffered saline (10 mM NaH2 PO4, pH 7.4, 120 mM NaCl, 5 mM KCl), and resuspended in phosphate-buffered saline at a final concentration of 4×10^7 cells/ml. The cells were chilled on ice for 10 min and then transferred in 0.5 ml aliquots to prechilled electroporation cuvettes. DNA (40 μg of pP2R1 linearized with PvuI) was added to the cell suspension, the cells were subjected to a single electrical pulse (1 kV, 25 μF) and the cuvettes were placed on ice. After 10 min, growth medium was added and the cells were incubated at 37° C. Fresh growth medium supplemented with 0.7 mg/ml G418 was added 48 h […], and the cells were incubated for 2 weeks to select for stable transfectants expressing neomycin resistance. Clonal cell lines were then isolated by transferring single cells to individual wells of a 96-well culture plate: each well contained 0.2 ml of conditioned growth medium filtered from K562 stock cultures, 0.2 ml of fresh growth medium, and 0.4 mg/ml G418. The clonal cell lines were cultured for three to four weeks in growth medium containing 0.4 mg/ml G418 and assayed for P2U receptor, the results shown are from one representative clonal cell line.
# (§2) Cytoplasmic Free Calcium Measurements. Cells were sedimented at 200×g for 5 min at room temperature and washed once with 10 ml of Hepes-bufferedsaline (20 mM Hepes, pH 7.4, 120 mM NaCl, 5 mM KCl, 1 mM MgCl2, and 1 mM CaCl2). Washed cells were suspended in Hepes-buffered saline at 5×10^5 cells/ml, and stored (for up to 4 h) at 37° C. The concentration of cytoplasmic free calcium, [Ca^2+ ]i, was measured by dual-excitation spectrofluorometric analysis of cells loaded with fura-2, a fluorescent probe for calcium.
# murine P2U receptor [2] = molecular target: T1, murine P2U receptor (Mus musculus, UniProt P35383); experiment: cytoplasmic free calcium (fura-2) in K562 cells transfected with P2U receptor cDNA; assay type: cell-based; design: missing the first 6 nucleotides of the 5' untranslated region of the full length cDNA; expressed in transfected cells; host or cells: K562 human leukemia cells; settings: for effect on [Ca^2+ ]i in stable transfectants / prevention of ATP-mediated increases in [Ca^2+ ]i (antagonism): concentrations as high as 1 mM, stable transfectants
# T1 sequence (P35383 whole entry): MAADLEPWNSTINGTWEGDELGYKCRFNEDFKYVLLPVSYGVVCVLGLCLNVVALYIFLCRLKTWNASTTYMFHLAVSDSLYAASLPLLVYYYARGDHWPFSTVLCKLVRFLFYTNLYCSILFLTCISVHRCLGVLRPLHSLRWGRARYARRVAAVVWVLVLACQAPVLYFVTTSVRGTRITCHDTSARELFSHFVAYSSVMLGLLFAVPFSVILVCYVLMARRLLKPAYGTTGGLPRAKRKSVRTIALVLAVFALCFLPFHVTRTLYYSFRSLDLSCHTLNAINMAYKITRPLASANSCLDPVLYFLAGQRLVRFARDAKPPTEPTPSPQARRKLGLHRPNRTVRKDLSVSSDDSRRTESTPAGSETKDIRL
# From the text: as §1
# To generate transient transfectants, K562 cells were transfected as above with 40 μg unlinearized plasmid pCCM6×1 or pP2R (Lustig et al., supra 1993). Cells were incubated for 48 h at 37° C. in 100 mm culture dishes containing 12 ml of growth medium and assayed for P2U receptor activity.
# as §2
# human P2U receptor [3] = molecular target: T2, human P2U receptor (Homo sapiens, UniProt P41231); experiment: intracellular calcium by fura-2 fluorescence in 1321N1 human astrocytoma cells expressing the cloned HP2U (LHP2USN); assay type: cell-based; settings: for efficacy / effect in concentration-effect curves: HP2U clone expressed in 1321N1 cells
# T2 sequence (P41231 whole entry): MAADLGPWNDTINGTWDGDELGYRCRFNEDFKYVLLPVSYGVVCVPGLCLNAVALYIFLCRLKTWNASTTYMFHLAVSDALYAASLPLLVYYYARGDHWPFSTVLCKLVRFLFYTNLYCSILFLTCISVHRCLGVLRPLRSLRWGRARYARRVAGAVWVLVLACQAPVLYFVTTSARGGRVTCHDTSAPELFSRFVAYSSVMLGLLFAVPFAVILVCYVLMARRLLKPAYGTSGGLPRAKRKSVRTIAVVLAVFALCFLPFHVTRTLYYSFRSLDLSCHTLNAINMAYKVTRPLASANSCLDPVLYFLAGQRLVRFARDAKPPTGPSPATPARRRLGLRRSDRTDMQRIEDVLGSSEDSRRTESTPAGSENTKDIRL
# Protocol: (§3) Heteroloqous Expression. A retroviral vector-containing plasmid, pLHP2USN, was constructed by insertion of the cloned CF/T43 cDNA into the EcoRI and XhoI sites of pLXSN (A. Miller and G. Rosman, Biotechniques 7, 980 (1989)). An amphotrophic packaging cell line, PA317, was used to produce the LHP2USN retroviral vector and a control vector containing Neor only (LSN). Clonal human astrocytoma cells 1321N1, UNC strain, generously provided by T. K. Harden (UNC, Chapel Hill, N.C.), were plated at 150,000 cells per 60-mm dish and infected with LHP2USN or LSN (2 hr, 4 ug/ml Polybrene) and after 48 hr selected with 600 ug/ml G418 (Life Technologies, Inc., Gaithersburg, Md., U.S.A.). To assay for receptor activity, intracellular calcium concentration was measured in confluent cells on coverslips by fura-2 fluorescence using microspectrofluorimetry as previously described (S. Mason et al., Br. J. Pharmacol. 103, 1649 (1991)). Measurement of cell inositol phosphate formation was as described by H. Brown et al., Mol. Pharmacol. 40, 648 (1991), in accordance with known techniques.
# (§4) A retrovirus expression system was employed to study the cloned CF/T43 HP2U cDNA in 1321N1 human astrocytoma cells. The effect of extracellular nuceotides on intracellular calcium, as measured by fura-2 fluorescence, was assessed in CF/T43 cells, uninfected 1321N1 cells, and 1321N1 cells infected with retroviral vector containing either the cloned HP2U or no insert (LSN).
# To examine the pharmacological specifity of the HP2U clone expressed in 1321N1 cells, concentration-effect curves were generated for nucleotides and structural analogues active at P2X, P2Y and P2U receptors (data not shown). […] These concentration-effect relations are very similar to those reported for heterologously expressed murine P2U (Lustig, et al., supra) and virtually indistinguishable from data (not shown) generated for the endogenous CF/T43 and HT-29 receptors. Clearly, the agonist specifities fit the definition of the P2U receptor.
# murine P2U receptor [4] = molecular target: T1, murine P2U receptor; design: host or cells: Xenopus oocytes; settings: Lustig et al. 1993, cited from earlier work; for stimulation of ^45 Ca^2+ efflux in oocytes: oocytes expressing the cloned receptor
# [5] = tested on: 1321N1 human astrocytoma cells (uninfected or LSN-infected); experiment: intracellular calcium by fura-2 fluorescence in uninfected or LSN-infected 1321N1 control cells; assay type: cell-based; settings: uninfected or LSN-infected controls
# Protocol: as §3, §4
# human P2U receptor [6] = molecular target: T2, human P2U receptor; experiment: inositol phosphate formation in 1321N1 cells expressing LHP2USN; assay type: cell-based; settings: HP2U-1321N1 cells; apyrase in the medium during cell-labeling step
# Protocol: as §3
# To test this possibility more directly, we measured inositol phosphate formation. […] We hypothesized that during the lengthy labeling period 1321N1 cells released 5'-nucleotides into the medium in quantities sufficient to "self-activate" the receptor. […] Thus, it appears the cells are persistently stimulated by nucleotides in an autocrine fashion. The mode of release of nucleotides from the astrocytoma cells and the biological consequences of the persistent autocrine activation are unknown. To facilitate comparison with controls, the inositol phosphate studies were performed on cells pretreated with apyrase.
# [7] = molecular target: T3, P2U receptor of CF/T43 cells (Homo sapiens, UniProt P41231); experiment: intracellular calcium by fura-2 fluorescence in CF/T43 cells (endogenous receptor); assay type: cell-based; settings: pretreatment
# T3 construct: fura-2 calcium
# T3 sequence (P41231 whole entry): as above
# Protocol: as §3, §4
Compound,effect on [Ca^2+ ]i in untransfected K562 cells [1],effect on [Ca^2+ ]i in stable transfectants (murine P2U receptor [2]),prevention of ATP-mediated increases in [Ca^2+ ]i (antagonism) (murine P2U receptor [2]),also measured
"CSc1nc(N)c2ncn([C@@H]3O[C@H](COP(=O)(O)OP(=O)(O)OP(=O)(O)O)[C@@H](O)[C@H]3O)c2n1 [2-MeSATP, 2-methylthioATP]",–,–,–,elevation of [Ca^2+ ]i in untransfected K562 cells (P2T receptor) [1]: elevated [Ca^2+ ]i; agonist activity at the P2U receptor (murine P2U receptor [2]; K562 stable transfectants): do not appear to act as agonists of the P2U receptor; efficacy / effect in concentration-effect curves (human P2U receptor [3]): had little effect; stimulation of ^45 Ca^2+ efflux in oocytes (murine P2U receptor [4]): did not stimulate
Nc1ncnc2c1ncn2[C@@H]1O[C@H](COP(=O)(O)OP(=O)(O)O)[C@@H](O)[C@H]1O [ADP],–,–,–,elevation of [Ca^2+ ]i in untransfected K562 cells (P2T receptor) [1]: elevated [Ca^2+ ]i; agonist activity at the P2U receptor (murine P2U receptor [2]; K562 stable transfectants): do not appear to act as agonists of the P2U receptor; stimulation of ^45 Ca^2+ efflux in oocytes (murine P2U receptor [4]): did not stimulate
Nc1ncnc2c1ncn2[C@@H]1O[C@H](COP(=O)(O)O)[C@@H](O)[C@H]1O [AMP],had no effect,had no effect,did not prevent ATP-mediated increases,–
Nc1ncnc2c1ncn2[C@@H]1O[C@H](COP(=O)(O)OP(=O)(O)OP(O)(O)=S)[C@@H](O)[C@H]1O [ATPγS],–,–,–,"agonist activity at the P2U receptor (murine P2U receptor [2]; K562 stable transfectants): relatively potent agonist; EC50 (murine P2U receptor [2]; K562 stable transfectants, read-out: EC50 for increases in [Ca^2+ ]i): ~9.6 µM; agonist activity at the P2U receptor in Xenopus oocytes (murine P2U receptor [4]; Xenopus oocytes): relatively potent agonist"
"Nc1ncnc2c1ncn2[C@@H]1O[C@H](COP(=O)(O)OP(=O)(O)OP(=O)(O)O)[C@@H](OC(=O)c2ccc(C(=O)c3ccccc3)cc2)[C@H]1O [BzATP, 3'-O-(4-benzoyl)benzoyl adenosine 5'-triphosphate]",–,–,–,agonist activity at the P2U receptor (murine P2U receptor [2]; K562 stable transfectants): relatively weak agonists compared to ATP and UTP
"O=C(O[C@H]1[C@@H](O)[C@H](n2ccc(=O)[nH]c2=O)O[C@@H]1COP(=O)(O)OP(=O)(O)OP(=O)(O)O)c1ccc(C(=O)c2ccccc2)cc1 [BzUTP, 3'-O-(4-benzoyl)benzoyl uridine 5'-triphosphate]",–,–,–,agonist activity at the P2U receptor (murine P2U receptor [2]; K562 stable transfectants): relatively weak agonists compared to ATP and UTP
Nc1ccn([C@@H]2O[C@H](COP(=O)(O)OP(=O)(O)OP(=O)(O)O)[C@@H](O)[C@H]2O)c(=O)n1 [CTP],had no effect,had no effect,did not prevent ATP-mediated increases,–
Nc1nc2c(ncn2[C@@H]2O[C@H](COP(=O)(O)OP(=O)(O)OP(=O)(O)O)[C@@H](O)[C@H]2O)c(=O)[nH]1 [GTP],had no effect,had no effect,did not prevent ATP-mediated increases,–
Cc1cn([C@H]2C[C@H](O)[C@@H](COP(=O)(O)OP(=O)(O)OP(=O)(O)O)O2)c(=O)[nH]c1=O [TTP],had no effect,had no effect,did not prevent ATP-mediated increases,–
O=c1ccn([C@@H]2O[C@H](COP(=O)(O)OP(=O)(O)O)[C@@H](O)[C@H]2O)c(=O)[nH]1 [UDP],had no effect,had no effect,did not prevent ATP-mediated increases,–
Nc1ncnc2c1ncn2[C@@H]1O[C@H](CO)[C@@H](O)[C@H]1O [adenosine],had no effect,had no effect,did not prevent ATP-mediated increases,–
C[N+](C)(C)CCOC(N)=O [carbachol],–,–,–,[Ca^2+ ]i response of uninfected or LSN-infected 1321N1 cells [5]: elicited responses in each case
"Nc1ncnc2c1ncn2[C@@H]1O[C@H](COP(=O)(O)CP(=O)(O)OP(=O)(O)O)[C@@H](O)[C@H]1O [α,β-MeATP]",–,–,–,efficacy / effect in concentration-effect curves (human P2U receptor [3]): had little effect
"Nc1ncnc2c1ncn2[C@@H]1O[C@H](COP(=O)(O)OP(=O)(O)NP(=O)(O)O)[C@@H](O)[C@H]1O [β,γ imidoATP]",had no effect,had no effect,did not prevent ATP-mediated increases,–
"Nc1ncnc2c1ncn2[C@@H]1O[C@H](COP(=O)(O)OP(=O)(O)CP(=O)(O)O)[C@@H](O)[C@H]1O [β,γ methyleneATP]",had no effect,had no effect,did not prevent ATP-mediated increases,–
apyrase,–,–,–,baseline inositol phosphate levels (human P2U receptor [6]): reduced the baseline inositol phosphate levels to values near those of controls
pertussis toxin,–,–,–,"inhibition of ATP-stimulated intracellular Ca^2+ mobilization (human P2U receptor [3]; HP2U-1321N1 cells, pretreatment): 20-30%; inhibition of ATP-stimulated intracellular Ca^2+ mobilization [7]: 20-30%"
